In the assay the target is T1, PPARγ (Homo sapiens, UniProt P37231).
T1 sequence (P37231 1-505): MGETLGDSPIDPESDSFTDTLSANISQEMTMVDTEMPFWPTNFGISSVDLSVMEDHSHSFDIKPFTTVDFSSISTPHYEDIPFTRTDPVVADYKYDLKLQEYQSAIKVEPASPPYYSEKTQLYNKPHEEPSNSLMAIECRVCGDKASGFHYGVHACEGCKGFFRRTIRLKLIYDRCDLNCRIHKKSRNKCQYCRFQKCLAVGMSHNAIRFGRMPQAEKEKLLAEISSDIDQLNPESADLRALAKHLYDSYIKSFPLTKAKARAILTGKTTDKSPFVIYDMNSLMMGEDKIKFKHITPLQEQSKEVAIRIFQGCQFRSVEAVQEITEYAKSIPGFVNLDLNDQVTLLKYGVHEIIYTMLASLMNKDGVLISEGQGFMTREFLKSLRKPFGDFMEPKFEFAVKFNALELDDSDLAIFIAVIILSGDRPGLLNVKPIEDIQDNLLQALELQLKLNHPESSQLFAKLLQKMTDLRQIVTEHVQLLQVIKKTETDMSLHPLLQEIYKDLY
The assay is described as follows: Detection of a covalent adduct on human PPARγ (LC-MS/MS). Also noted: purchased Cayman Chemical. Format: binding. As to conditions: 100 μM, 1 h, tryptic digest LC-MS/MS. An excerpt:
Finally, we sought to understand the molecular basis for PPARγ binding by the synthetic analogues of deoxyelephantopin through identification of the precise covalently modified amino acid site. There is literature precedent for oxidized fatty acids containing an α,β-unsaturated ketone to form a covalent bond with a cysteine in the ligand-binding site of PPARγ[53]. More recently, synthetic ligands binding reversibly to a distinct site were identified. […] Bearing in mind that the structurally simplified, and thus less prone to MS/MS fragmentation, probe 23c binds PPARγ as efficiently as 24c (Supplementary Fig. 13), we treated the recombinant nuclear receptor with the former compound, digested the protein and analysed the resulting peptides by LC–MS/MS. […]
Recombinant human PPARγ (500 ng in 9 μl PBS) was treated with 100 μM of 23c (1 μl of 10 × stock in DMSO) or DMSO for 1 h. […] Samples were resuspended in 0.1% FA in water and analysed by LC–MS/MS. The theoretical mass of the 23c adduct was calculated and LC–MS/MS was run with an inclusion list containing m/z and charge of the expected peptides. MS data were analysed in MaxQuant with 23c (+256.1099 Da) and carbamidomethylation as variable modifications on cysteine. […]

Each structure is given as a SMILES string.

Take `C#CCC[C@H](O)[C@H]1C(=C)C(=O)O[C@@H]1c1ccccc1` [23c]: the “protein site covalently modified” value is listed as “Cys190”.

The record behind these values is article PMC4992173, “Divergent synthesis and identification of the cellular targets of deoxyelephantopins” (Nature Communications, 2016).
